Columns and labels:
[1] = test system: 3D in vitro skin model containing epidermal keratinocytes and dermal fibroblasts; experiment: LDH cytotoxicity assay in 3D in vitro skin model; assay type: cell-based; settings: light or radiation study, UV (200 mJ UVB/cm^2), topical 24 h
Experimental: (§1) A 3D in vitro skin model containing epidermal keratinocytes and dermal fibroblasts was used. Some tissues were irradiated with 200 mJ UVB/cm^2. Test materials were applied topically for 24 hours (after UVB exposure) and an MTT assay was used to check the viability of cells. The following treatment groups were used: • olive oil (no CBD); • CBD in olive oil in concentrations of 30, 60, 120, and 250 mg/mL; • No treatment; and • Triton-X® as positive control.
(§2) Cytotoxicity was assessed with a lactate dehydrogenase (LDH) assay using media collected from the wells of the tissues. Increased LDH activity is an indicator of damaged or dead cells.
(§3) The results are provided in the following Table A, with the untreated group defining 0% cytotoxicity and Triton-X defining 100% cytotoxicity. Lower cytotoxicity is better. * indicates p≤0.05 and ** indicates p≤0.01 statistical significance after performing unpaired t-test.

[2] = LDH cytotoxicity assay in 3D in vitro skin model; assay type: cell-based; settings: no UV, topical 24 h
Experimental: as §1, §2, §3

[3] = test system: acute radiation-induced dermatitis; experiment: Skin redness scoring in mouse radiation dermatitis model; assay type: in vivo, Balb/c mice; parameters: key to Redness score (mean): visual redness score, scale 0 to 3 in 0.5 increments; settings: for Redness score % Change CBD vs. Group 3: vs olive oil only; for Redness score % Change CBD vs. Group 2: vs radiation only
Experimental: A study was performed on mice to determine the efficacy of topically-dosed CBD in an olive oil vehicle for the treatment of acute radiation-induced dermatitis. Three different CBD dosages were used— 30 mg/mL (3 wt %), 120 mg/mL (12 wt %), and 250 mg/mL (25 wt %).
144 female Balb/c mice with an average starting body weight (±SEM) of 17.96±0.12 grams were randomized into six (6) groups of 24 animals each, as follows:
The control group (Group 1) was not irradiated. The animals in Groups 2-6 were anesthetized via a single intraperitoneal injection of xylazine and ketamine prior to being administered a single dose of 30 Grays (Gy) of radiation directed at a 2 cm×4 cm patch of shaved dorsal skin on Day 0. Radiation was generated by a 160 kVp (15-ma) X-ray source at a focal distance of 10 cm, hardened with a 0.35 mm Cu filtration system at a rate of approximately 3.2 Gy/minute.
Dosing for animals in Groups 3-6 began on Day 0 immediately after radiation. Treatments were administered topically (0.1 mL per animal) daily from Days 0-28.
Starting on Day 8 and continuing every other day thereafter (Days 8-28), each animal was evaluated for skin redness and dermatitis, and photographed for subsequent blinded scoring of dermatitis at the completion of the study. Body weight was taken daily.
Skin redness was scored visually by comparison to a photographic scale, and reported on a scale of 0 to 3 in 0.5 unit increments. The scale is described in the table below:
Data were evaluated using one-way ANOVA with Dunnett's multiple comparisons test to compare all groups to the vehicle control group using GraphPad Prism 8.4.3 (La Jolla, CA Duration of dermatitis data was evaluated using the Chi-square test to compare all groups to the vehicle-control group and radiation only group using SigmaPlot 11.0 (Systat Software, Inc.). Statistical significance was achieved when p<0.05.

C=C(C)[C@@H]1CCC(C)=C[C@H]1c1c(O)cc(CCCCC)cc1O [CBD, 2-[(1R,6R)-6-Isopropenyl-3-methylcyclohex-2-en-1-yl]-5-pentylbenzene-1,3-diol]
cytotoxicity at 30000 µg/mL ([1]; 30 mg/mL CBD in olive oil): 17%
cytotoxicity at 60000 µg/mL ([1]; 60 mg/mL CBD in olive oil): 19%
cytotoxicity at 120000 µg/mL ([1]; 120 mg/mL CBD in olive oil): 16%
cytotoxicity at 250000 µg/mL ([1]; 250 mg/mL CBD in olive oil): 16%
cytotoxicity at 24 h, 30 mg/mL ([2]; 30 mg/mL CBD in olive oil, untreated=0%, Triton-X=100%): 4%
cytotoxicity at 24 h, 60 mg/mL ([2]; 60 mg/mL CBD in olive oil): 4%
cytotoxicity at 24 h, 120 mg/mL ([2]; 120 mg/mL CBD in olive oil): 5%
cytotoxicity at 24 h, 250 mg/mL ([2]; 250 mg/mL CBD in olive oil): 11%
Redness score (mean) ([3]; CBD-treated groups condensed (30, 120, 250 mg/mL), Day 8): 0.81
Redness score (mean) ([3]; CBD-treated groups condensed, Day 10): 1.06
Redness score (mean) ([3]; CBD-treated groups condensed, Day 12): 1.07
Redness score (mean) ([3]; CBD-treated groups condensed, Day 14): 1.16
Redness score (mean) ([3]; CBD-treated groups condensed, Day 16): 1.43
Redness score (mean) ([3]; CBD-treated groups condensed, Day 18): 1.40
Redness score (mean) ([3]; CBD-treated groups condensed, Day 20): 1.43
Redness score (mean) ([3]; CBD-treated groups condensed, Day 22): 1.50
Redness score (mean) ([3]; CBD-treated groups condensed, Day 24): 1.18
Redness score (mean) ([3]; CBD-treated groups condensed, Day 26): 1.04
Redness score (mean) ([3]; CBD-treated groups condensed, Day 28): 0.89
Mean redness scores compared against Group 2 (radiation only) ([3]; CBD-treated groups considered together, p<0.05): statistically significant reduction
Redness scores compared to Group 2 ([3]; CBD-treated groups, after Day 14): consistently lower
Redness scores compared to Group 3 (olive oil only) ([3]; CBD-treated groups, all time points): consistently lower
Redness score % Change CBD vs. Group 3 ([3]; Day 8): −16.13%
Redness score % Change CBD vs. Group 3 ([3]; Day 10): −30.61%
Redness score % Change CBD vs. Group 3 ([3]; Day 12): −32.68%
Redness score % Change CBD vs. Group 3 ([3]; Day 14): −27.45%
Redness score % Change CBD vs. Group 3 ([3]; Day 16): −29.93%
Redness score % Change CBD vs. Group 3 ([3]; Day 18): −21.71%
Redness score % Change CBD vs. Group 3 ([3]; Day 20): −23.70%
Redness score % Change CBD vs. Group 3 ([3]; Day 22): −32.08%
Redness score % Change CBD vs. Group 3 ([3]; Day 24): −25.44%
Redness score % Change CBD vs. Group 3 ([3]; Day 26): −30.56%
Redness score % Change CBD vs. Group 3 ([3]; Day 28): −42.34%
Redness score % Change CBD vs. Group 2 ([3]; Day 8): 87.50%
Redness score % Change CBD vs. Group 2 ([3]; Day 12): 3.83%
Redness score % Change CBD vs. Group 2 ([3]; Day 14): −3.65%
Redness score % Change CBD vs. Group 2 ([3]; Day 16): −21.32%
Redness score % Change CBD vs. Group 2 ([3]; Day 18): −24.73%
Redness score % Change CBD vs. Group 2 ([3]; Day 20): −25.07%
Redness score % Change CBD vs. Group 2 ([3]; Day 22): −34.00%
Redness score % Change CBD vs. Group 2 ([3]; Day 24): −42.28%
Redness score % Change CBD vs. Group 2 ([3]; Day 26): −45.44%
Redness score % Change CBD vs. Group 2 ([3]; Day 28): −45.68%

— US12059393B2, “Compositions for topical treatment of radiation dermatitis” (Akos Biosciences, Inc, priority 2022, dated 2024)
